Measurements published in ChEMBL document CHEMBL1201862, “PubChem BioAssay data set” (2004).
The source made the active and inactive calls.

Experiments:
[1] = P. falciparum Dd2 growth inhibitors, dose response, SYBR Green, cherry-picked samples (AID 1159567); format: functional, cell-based
[2] = NIH:OVCAR-3 ovarian cancer cell cytotoxicity, dose response, PAX8 inhibitor project, plate reader, dry powder samples (AID 743044); format: functional, cell-based
Paired box protein Pax-8 = Paired box protein Pax-8 (Homo sapiens, UniProt Q06710); test: inhibitors of PAX8-driven TPO luciferase reporter, dose response, RMG-I cells, cherry-pick (AID 687027); format: functional, cell-based;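 also: luciferase reporter driven by Pax8 target thyroperoxidase promoter measured by SteadyGlo luminescence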
Chain of Paired box protein Pax-8 (Q06710 whole entry): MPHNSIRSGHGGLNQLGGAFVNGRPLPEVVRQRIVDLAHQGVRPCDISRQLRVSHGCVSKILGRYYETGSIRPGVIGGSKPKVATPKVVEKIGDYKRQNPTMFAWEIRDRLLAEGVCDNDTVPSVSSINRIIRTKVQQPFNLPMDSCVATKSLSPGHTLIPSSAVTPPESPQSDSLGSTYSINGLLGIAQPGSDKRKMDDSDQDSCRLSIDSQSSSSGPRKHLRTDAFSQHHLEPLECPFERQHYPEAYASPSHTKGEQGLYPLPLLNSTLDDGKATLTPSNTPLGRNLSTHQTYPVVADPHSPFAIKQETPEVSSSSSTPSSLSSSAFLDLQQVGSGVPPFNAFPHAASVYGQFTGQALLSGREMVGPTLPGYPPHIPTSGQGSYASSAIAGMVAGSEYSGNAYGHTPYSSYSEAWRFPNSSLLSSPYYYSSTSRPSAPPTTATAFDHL

[3] = target: T1, Short transient receptor potential channel 4 (Mus musculus, UniProt Q9QUQ5); test: mouse TRPC4 channel inhibitors, dose response, cell-based, HEK293 TRPC4/mu-opioid, Fluo-4 calcium (AID 434942); format: functional;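 also: potency of inhibitors blocking the TRPC4 calcium response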
T1 sequence (Q9QUQ5 whole entry): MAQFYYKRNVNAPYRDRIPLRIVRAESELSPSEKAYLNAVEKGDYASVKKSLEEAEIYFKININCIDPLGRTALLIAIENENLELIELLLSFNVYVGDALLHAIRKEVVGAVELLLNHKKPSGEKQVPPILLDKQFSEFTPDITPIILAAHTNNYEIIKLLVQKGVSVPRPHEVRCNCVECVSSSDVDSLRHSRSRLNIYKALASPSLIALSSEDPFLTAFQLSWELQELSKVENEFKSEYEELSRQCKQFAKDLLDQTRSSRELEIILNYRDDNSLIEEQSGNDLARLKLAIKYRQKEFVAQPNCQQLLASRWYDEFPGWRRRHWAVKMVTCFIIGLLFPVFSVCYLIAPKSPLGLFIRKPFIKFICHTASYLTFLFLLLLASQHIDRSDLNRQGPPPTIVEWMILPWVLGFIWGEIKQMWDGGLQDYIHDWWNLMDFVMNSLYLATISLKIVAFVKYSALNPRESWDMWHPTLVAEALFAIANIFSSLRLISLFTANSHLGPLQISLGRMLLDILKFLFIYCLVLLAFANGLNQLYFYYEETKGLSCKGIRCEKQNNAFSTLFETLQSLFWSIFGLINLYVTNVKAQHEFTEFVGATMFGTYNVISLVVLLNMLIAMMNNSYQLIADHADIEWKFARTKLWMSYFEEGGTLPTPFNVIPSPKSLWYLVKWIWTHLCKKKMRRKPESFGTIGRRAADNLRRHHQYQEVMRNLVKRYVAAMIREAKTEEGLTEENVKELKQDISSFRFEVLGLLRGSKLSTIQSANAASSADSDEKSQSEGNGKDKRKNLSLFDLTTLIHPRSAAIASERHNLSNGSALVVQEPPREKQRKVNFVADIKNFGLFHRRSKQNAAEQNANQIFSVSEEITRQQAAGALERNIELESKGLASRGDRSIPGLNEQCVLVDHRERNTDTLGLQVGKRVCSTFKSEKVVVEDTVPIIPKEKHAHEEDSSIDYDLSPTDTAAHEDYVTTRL

Aminopeptidase N = target: T2, Aminopeptidase N (Plasmodium falciparum FcB1/Columbia, UniProt O96935); test: P. falciparum M1AAP inhibitors, biochemical, fluorogenic H-Leu-NHMec substrate, 1536-well (AID 1445); parameters: species or system Plasmodium falciparum 3D7, 3D7
T2 sequence (O96935 whole entry): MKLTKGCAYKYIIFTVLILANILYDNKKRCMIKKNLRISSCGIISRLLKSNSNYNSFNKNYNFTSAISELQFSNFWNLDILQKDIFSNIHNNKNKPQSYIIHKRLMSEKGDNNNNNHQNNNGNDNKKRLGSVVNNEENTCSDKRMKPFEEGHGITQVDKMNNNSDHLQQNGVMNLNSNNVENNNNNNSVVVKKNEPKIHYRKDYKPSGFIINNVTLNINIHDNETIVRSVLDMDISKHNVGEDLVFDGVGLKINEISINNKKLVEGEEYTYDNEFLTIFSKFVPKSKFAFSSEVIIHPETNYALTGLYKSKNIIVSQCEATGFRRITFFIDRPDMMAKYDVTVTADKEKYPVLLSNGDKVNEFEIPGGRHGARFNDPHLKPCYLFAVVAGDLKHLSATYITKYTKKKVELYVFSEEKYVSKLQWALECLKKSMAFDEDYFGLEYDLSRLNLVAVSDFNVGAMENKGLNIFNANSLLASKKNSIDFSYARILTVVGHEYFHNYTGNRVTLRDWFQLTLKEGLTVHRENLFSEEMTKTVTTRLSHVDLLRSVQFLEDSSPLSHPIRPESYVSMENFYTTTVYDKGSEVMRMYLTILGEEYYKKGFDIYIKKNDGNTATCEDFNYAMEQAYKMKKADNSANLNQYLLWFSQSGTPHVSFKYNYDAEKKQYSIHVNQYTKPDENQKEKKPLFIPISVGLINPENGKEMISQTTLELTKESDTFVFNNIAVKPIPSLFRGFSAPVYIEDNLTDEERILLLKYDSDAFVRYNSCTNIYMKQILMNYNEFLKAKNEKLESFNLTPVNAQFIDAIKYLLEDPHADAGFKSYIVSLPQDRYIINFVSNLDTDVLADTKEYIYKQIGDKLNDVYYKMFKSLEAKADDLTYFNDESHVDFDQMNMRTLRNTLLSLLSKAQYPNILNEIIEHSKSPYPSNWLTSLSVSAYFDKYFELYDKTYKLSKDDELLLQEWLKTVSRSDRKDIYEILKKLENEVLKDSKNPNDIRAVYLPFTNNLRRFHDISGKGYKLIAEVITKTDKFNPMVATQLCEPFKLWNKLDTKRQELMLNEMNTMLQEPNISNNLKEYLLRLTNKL

[4] = target: T3, Heat shock factor protein 1 (Mus musculus, UniProt P38532); test: inhibition of MG132-induced HSE-luciferase signal, confirmation, cell-based, NIH3T3, luminescence, dose retest (AID 2382); format: functional;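 also: NIH3T3 fibroblasts with HSF1-driven luciferase reporter stressed by proteasome inhibitor MG132; luminescence from HSF1-driven luciferase expression after 8 hours of MG132 stress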
T3 sequence (P38532 whole entry): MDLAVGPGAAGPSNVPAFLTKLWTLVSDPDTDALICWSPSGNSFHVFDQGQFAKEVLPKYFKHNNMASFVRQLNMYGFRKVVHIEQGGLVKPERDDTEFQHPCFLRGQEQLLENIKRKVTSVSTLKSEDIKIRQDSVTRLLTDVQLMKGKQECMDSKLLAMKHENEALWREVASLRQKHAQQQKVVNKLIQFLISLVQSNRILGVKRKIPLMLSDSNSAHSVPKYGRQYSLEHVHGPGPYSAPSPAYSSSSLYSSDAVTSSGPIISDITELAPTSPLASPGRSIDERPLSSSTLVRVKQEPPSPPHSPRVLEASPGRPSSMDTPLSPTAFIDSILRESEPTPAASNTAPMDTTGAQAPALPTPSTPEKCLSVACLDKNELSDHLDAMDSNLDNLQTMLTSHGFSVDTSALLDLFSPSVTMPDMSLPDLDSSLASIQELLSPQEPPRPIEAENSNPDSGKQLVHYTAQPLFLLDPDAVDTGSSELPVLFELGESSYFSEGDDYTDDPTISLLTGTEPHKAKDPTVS

[5] = THP-1 cell cytotoxicity, dose response, cytotoxicity control for non-replicating M. tuberculosis project (AID 489025); format: functional
cells = format: functional
[6] = microbe, parasite or virus in culture; format: functional; settings: Mycobacterium tuberculosis
[7] = Vero E6 cell cytotoxicity, dose response, cytotoxicity control for non-replicating M. tuberculosis project, secondary assay (AID 492998); format: functional, VeroE6; settings: Vero C1008
[8] = target: Glyceraldehyde-3-phosphate dehydrogenase (Homo sapiens, UniProt P04406)
Chain of Glyceraldehyde-3-phosphate dehydrogenase (P04406 whole entry): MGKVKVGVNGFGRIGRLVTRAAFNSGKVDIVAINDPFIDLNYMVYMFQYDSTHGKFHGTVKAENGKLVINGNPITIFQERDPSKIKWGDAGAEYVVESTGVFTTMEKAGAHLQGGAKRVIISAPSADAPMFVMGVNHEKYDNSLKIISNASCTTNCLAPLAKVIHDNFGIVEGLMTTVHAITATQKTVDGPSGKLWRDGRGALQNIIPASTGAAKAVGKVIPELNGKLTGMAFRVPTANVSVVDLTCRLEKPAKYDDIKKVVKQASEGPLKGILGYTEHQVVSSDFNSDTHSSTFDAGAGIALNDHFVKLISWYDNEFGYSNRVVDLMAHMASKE

Genome polyprotein = Genome polyprotein (dengue virus type 2, UniProt P29990); test: Dengue-2 NS5 methyltransferase inhibitors, primary screen, biochemical, confirmation dose response (AID 588689); format: functional
Chain of Genome polyprotein (P29990 2492-3391 limits assumed): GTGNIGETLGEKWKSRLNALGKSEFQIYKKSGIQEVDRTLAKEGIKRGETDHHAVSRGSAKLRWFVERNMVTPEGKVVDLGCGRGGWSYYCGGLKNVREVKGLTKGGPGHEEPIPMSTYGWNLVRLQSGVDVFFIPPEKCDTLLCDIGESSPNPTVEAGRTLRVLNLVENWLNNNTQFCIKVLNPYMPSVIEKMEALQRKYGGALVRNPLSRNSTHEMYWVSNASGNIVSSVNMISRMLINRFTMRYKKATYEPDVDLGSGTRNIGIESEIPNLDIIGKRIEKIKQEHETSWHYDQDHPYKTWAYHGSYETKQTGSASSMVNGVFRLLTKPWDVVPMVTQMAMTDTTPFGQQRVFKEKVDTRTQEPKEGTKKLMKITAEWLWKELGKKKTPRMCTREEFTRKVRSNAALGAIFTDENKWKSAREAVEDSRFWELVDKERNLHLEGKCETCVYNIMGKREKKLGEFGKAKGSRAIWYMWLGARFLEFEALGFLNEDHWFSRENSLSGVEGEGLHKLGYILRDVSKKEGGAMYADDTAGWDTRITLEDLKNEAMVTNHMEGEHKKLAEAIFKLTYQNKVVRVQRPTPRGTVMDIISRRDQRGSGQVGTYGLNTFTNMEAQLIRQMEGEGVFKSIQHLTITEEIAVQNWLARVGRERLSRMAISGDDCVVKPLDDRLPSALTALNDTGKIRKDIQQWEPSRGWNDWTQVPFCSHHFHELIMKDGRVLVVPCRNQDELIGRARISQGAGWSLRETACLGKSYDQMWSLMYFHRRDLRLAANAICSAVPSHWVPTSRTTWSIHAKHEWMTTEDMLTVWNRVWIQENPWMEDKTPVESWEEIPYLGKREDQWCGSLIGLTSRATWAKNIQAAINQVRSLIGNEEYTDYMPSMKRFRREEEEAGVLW

[9] = target: T4, Polyadenylate-binding protein 1 (Homo sapiens, UniProt P11940); test: PABP1 MLLE–PAM2 interaction inhibitors, dose response, miRNA deadenylation inhibitor project, biochemical, fluorescence polarization, Cy5-PAM2 peptide, secondary (AID 602260); format: functional; settings: read-out: IC50_Mean
T4 sequence (P11940 whole entry, the tested form may be a part): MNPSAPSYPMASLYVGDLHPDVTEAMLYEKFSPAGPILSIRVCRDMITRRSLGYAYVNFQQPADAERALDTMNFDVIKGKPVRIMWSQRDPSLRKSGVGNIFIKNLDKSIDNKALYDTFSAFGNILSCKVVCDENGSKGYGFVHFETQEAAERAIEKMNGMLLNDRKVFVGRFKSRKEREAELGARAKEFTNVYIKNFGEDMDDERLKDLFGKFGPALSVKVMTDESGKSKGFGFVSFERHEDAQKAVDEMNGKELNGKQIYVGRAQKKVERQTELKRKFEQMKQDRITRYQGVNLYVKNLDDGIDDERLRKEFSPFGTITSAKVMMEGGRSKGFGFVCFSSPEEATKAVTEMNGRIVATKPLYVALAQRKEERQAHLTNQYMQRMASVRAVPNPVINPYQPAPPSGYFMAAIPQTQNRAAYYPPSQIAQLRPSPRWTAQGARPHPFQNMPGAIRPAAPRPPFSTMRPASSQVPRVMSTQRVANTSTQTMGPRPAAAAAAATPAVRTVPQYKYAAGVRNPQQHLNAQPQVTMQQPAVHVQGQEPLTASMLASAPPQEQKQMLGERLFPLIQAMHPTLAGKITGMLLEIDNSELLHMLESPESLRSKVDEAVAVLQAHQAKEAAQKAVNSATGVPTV

[10] = target: T5, RNA-binding protein pos-1 (Caenorhabditis elegans, UniProt G5EF15); test: inhibitors of POS-1/mex-3 RNA binding, dose response, biochemical, fluorescence polarization (AID 1964);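 also: purified POS-1 fused to maltose binding protein made in E. coli; potency of compounds blocking POS-1 binding to fluorescent RNA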
T5 sequence (G5EF15 whole entry): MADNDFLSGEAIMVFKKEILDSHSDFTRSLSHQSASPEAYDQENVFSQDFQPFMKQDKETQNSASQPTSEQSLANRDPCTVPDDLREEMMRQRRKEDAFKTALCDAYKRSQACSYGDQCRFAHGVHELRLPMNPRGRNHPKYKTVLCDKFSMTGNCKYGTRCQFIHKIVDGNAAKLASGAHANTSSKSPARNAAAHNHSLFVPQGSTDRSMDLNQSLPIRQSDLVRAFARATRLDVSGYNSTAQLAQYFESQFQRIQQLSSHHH

[11] = target: T6, Zinc finger protein mex-5 (Caenorhabditis elegans, UniProt Q9XUB2); test: MEX-5/TCR-2 RNA interaction inhibitors, dose response, biochemical, C. elegans, fluorescence polarization (AID 1960)
T6 sequence (Q9XUB2 whole entry): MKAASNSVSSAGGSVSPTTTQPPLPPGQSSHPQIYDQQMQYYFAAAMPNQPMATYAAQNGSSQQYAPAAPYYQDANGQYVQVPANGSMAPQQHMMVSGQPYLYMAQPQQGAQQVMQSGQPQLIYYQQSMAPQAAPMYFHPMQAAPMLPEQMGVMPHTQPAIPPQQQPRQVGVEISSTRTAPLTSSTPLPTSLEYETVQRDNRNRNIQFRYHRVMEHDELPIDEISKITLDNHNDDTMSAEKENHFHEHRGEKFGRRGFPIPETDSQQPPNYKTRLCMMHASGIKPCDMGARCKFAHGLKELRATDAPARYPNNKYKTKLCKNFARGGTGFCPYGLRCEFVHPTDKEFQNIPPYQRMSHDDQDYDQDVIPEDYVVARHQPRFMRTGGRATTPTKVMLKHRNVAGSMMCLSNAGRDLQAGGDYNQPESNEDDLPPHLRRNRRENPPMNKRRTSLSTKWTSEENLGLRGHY

[12] = target: T4, Polyadenylate-binding protein 1; test: PABP1 MLLE–PAM2 binding inhibitor potency, dose response, biochemical, fluorescence polarization, FITC-PAM2 peptide (AID 602259); format: functional; settings: read-out: IC50_Mean
Estrogen receptor = target: T7, Estrogen receptor (Homo sapiens, UniProt P03372);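 also: potency for inhibiting coactivator peptide recruitment to the receptor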
T7 sequence (P03372 whole entry): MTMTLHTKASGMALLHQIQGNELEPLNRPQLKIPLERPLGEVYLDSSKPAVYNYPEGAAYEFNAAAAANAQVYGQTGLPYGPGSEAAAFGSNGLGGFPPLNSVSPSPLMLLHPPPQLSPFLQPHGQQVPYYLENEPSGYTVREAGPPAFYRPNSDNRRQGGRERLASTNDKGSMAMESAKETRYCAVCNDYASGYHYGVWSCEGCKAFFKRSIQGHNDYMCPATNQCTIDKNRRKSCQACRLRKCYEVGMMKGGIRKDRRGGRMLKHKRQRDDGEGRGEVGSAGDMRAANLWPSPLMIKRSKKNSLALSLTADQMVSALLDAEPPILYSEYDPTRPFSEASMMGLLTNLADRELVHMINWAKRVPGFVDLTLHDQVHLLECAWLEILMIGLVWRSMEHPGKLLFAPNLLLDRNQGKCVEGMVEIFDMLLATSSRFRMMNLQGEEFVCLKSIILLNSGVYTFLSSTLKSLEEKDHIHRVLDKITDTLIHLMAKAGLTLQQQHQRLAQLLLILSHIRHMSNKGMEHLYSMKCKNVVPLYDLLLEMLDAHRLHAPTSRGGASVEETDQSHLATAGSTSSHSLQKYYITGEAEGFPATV

## N#Cc1cccc(-c2ccc3c(c2)[C@H]2[C@H](CCN2C(=O)c2ccncc2)[C@H](CO)N3)c1
[1]
  AC50: 7.86 µM (active)

## O=C(C[C@@H]1CC[C@@H]2[C@H](COC[C@@H](O)CN2S(=O)(=O)c2cccc(Cl)c2)O1)Nc1ccc(-c2ccccc2)cc1
[2]
  AC50: 18.9 µM (active)
Paired box protein Pax-8
  AC50: 9.62 µM (active)

## Cc1cc(OCC(=O)Nc2ccc(N3CCN(C)CC3)cc2)ccc1Cl
[3]
  EC50: 2.66 µM (active)

## O=C(O)c1cccc(NC(=S)NC(NC(=O)c2ccco2)C(Cl)(Cl)Cl)c1 (stereo not drawn)
Aminopeptidase N
  IC50: 39.9 µM (active)
[4]
  EC50: > 195 µM (not active)

## CN1CCN(c2ccc(NC(=O)c3ccc(Br)o3)cc2)CC1
[3]
  EC50: 0.841 µM (active)

## Cn1cnc([N+](=O)[O-])c1Sc1ccc(Br)cc1
[5]
  CC50: 34.4 µM (active)
cells
  IC50: 11.5 µM (active)
[6]
  CC50: 32.4 µM (active)
[7]
  CC50: > 20 µM (active)

## COc1cccc(N2C(=O)C(Cl)=C(N3CCN(c4ncccn4)CC3)C2=O)c1
[8]
  IC50: > 50 µM (inconclusive)

## CCCCCCC(=O)N(O)C1CC(=O)N(c2ccccc2)C1=O (stereo not drawn)
Aminopeptidase N
  IC50: 66.5 µM (active)

## O=C(O)C(c1ccccc1)N1C(=O)/C(=C/c2cccs2)SC1=S (stereo not drawn)
Genome polyprotein
  IC50: 46.9 µM (active)
Aminopeptidase N
  IC50: 57.7 µM (active)

## CCC1=Nc2cc(C(=O)N3CCC4(CC3)OCCO4)ccc2Sc2ccc(C)cc21
[3]
  EC50: 7.5 µM (active)

## COc1ccc(OCC(=O)N2CCN(C(=O)COc3ccc(Br)cc3)CC2)cc1
Aminopeptidase N
  IC50: 59.2 µM (active)

## Cc1cc(O)nc(-n2nc(C)cc2C)n1
[5]
  CC50: > 40 µM (active)
cells
  IC50: 3.82 µM (active)
[7]
  CC50: > 20 µM (active)

## CCOC(=O)c1ccsc1NC(=O)CCS(=O)(=O)c1ccccc1
[5]
  CC50: 34.5 µM (active)
[7]
  CC50: > 20 µM (active)

## COc1ccc(N2CCN(C3=C(Cl)C(=O)N(c4cccc(C(F)(F)F)c4)C3=O)CC2)cc1
[8]
  IC50: > 50 µM (inconclusive)

## Cc1c(N2C(=O)C(O)=C(C(=O)c3ccc(Br)cc3)C2c2cccnc2)c(=O)n(-c2ccccc2)n1C (stereo not drawn)
Aminopeptidase N
  IC50: 38.1 µM (active)

## O=C(c1ccc(-c2ccc([N+](=O)[O-])cc2)o1)N1CCCCCCC1
[5]
  CC50: 9 µM (active)
cells
  IC50: 12.7 µM (active)
[7]
  CC50: 9.37 µM (active)

## Fc1ccc(NCc2cccnc2)cc1F
[9]
  IC50: > 66 µM (inactive)
[10]
  EC50: 15.4 µM (active)
[11]
  EC50: 11.2 µM (active)
[12]
  IC50: 49.1 µM (inactive)
Estrogen receptor
  IC50: > 50 µM (not active)

## Cc1ccccc1S(=O)(=O)N(C)C[C@H]1OCc2ccccc2-c2ccccc2C(=O)N([C@@H](C)CO)C[C@H]1C
[1]
  AC50: 20.9 µM (active)
